Results taken from PubChem BioAssay AID330 (DTP/NCI, 2004).
Where “and” joins values, the source holds several entries; their conditions need not be identical. Identical values can stand only once. Inconclusive results and toxic doses are left out. How the source made its calls: active means survival T/C of 150% or more; inactive means T/C below 125% in these data.

System: P388 leukemia ip, CD2F1 mice, survival T/C
Assay: NCI In Vivo Anticancer Drug Screen. Data for tumor model P388 Leukemia (intraperitoneal) in CD2F1 (CDF1) mice
Settings: endpoint: median survival time, higher = longer survival
Outline: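 Mice carrying the transplanted tumor received test compound or vehicle. Survival was recorded in each group, and the value is the treated-group measurement divided by that of the vehicle-treated control group.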

[1] = dose: 50.0 mg/kg/injection, schedule: Q01DX005 (ip), vehicle: Klucel (hydroxypropylcellulose) (HPC)
[2] = dose: 100.0 mg/kg/injection, schedule: Q01DX005 (ip), vehicle: Klucel (hydroxypropylcellulose) (HPC)
[3] = dose: 100.0 mg/kg/injection, schedule: Q01DX009 (ip), vehicle: saline with Tween-80
[4] = dose: 60.0 mg/kg/injection, schedule: Q01DX005 (ip), vehicle: Klucel (hydroxypropylcellulose) (HPC)
[5] = dose: 120.0 mg/kg/injection, schedule: Q01DX005 (ip), vehicle: Klucel (hydroxypropylcellulose) (HPC)

Measured: T/C

CSC(SC)=C1C(=O)NC(=O)NC1=O
inactive: dose: 3.12 mg/kg/injection, schedule: Q01DX009 (ip), vehicle: saline with Tween-80 104 % of control | dose: 6.25 mg/kg/injection, schedule: Q01DX009 (ip), vehicle: saline with Tween-80 90 % of control | dose: 6.25 mg/kg/injection, schedule: Q01DX009 (ip), vehicle: saline 111 % of control | dose: 12.5 mg/kg/injection, schedule: Q01DX009 (ip), vehicle: saline with Tween-80 120 % of control | dose: 12.5 mg/kg/injection, schedule: Q01DX009 (ip), vehicle: saline 111 % of control | dose: 25.0 mg/kg/injection, schedule: Q01DX009 (ip), vehicle: saline 124 % of control | [1] 95 % of control | [2] 101 % of control

Nc1ccc2nc3c(N)ccc(N)c3nc2c1
inactive: dose: 3.75 mg/kg/injection, schedule: Q01DX005 (ip), vehicle: saline 100 % of control and 103 % of control | dose: 7.5 mg/kg/injection, schedule: Q01DX005 (ip), vehicle: saline 100 % of control and 105 % of control | dose: 15.0 mg/kg/injection, schedule: Q01DX005 (ip), vehicle: saline 100 % of control and 109 % of control | dose: 30.0 mg/kg/injection, schedule: Q01DX005 (ip), vehicle: saline 111 % of control and 116 % of control | dose: 60.0 mg/kg/injection, schedule: Q01DX005 (ip), vehicle: saline 116 % of control | dose: 120.0 mg/kg/injection, schedule: Q01DX005 (ip), vehicle: saline 118 % of control

COC(=O)C(Cl)c1ccc2c(c1)OCO2 (centres undefined)
inactive: dose: 25.0 mg/kg/injection, schedule: Q01DX009 (ip), vehicle: saline with Tween-80 100 % of control | dose: 50.0 mg/kg/injection, schedule: Q01DX009 (ip), vehicle: saline with Tween-80 90 % of control | [3] 95 % of control

COc1ccc2c(c1)SC1=NNC(=O)CN12
inactive: [4] 89 % of control | [5] 89 % of control | dose: 240.0 mg/kg/injection, schedule: Q01DX005 (ip), vehicle: Klucel (hydroxypropylcellulose) (HPC) 91 % of control

COC(=O)c1nc(N)nc(C(=O)OC)c1C(=O)c1cccc([N+](=O)[O-])c1
inactive: [4] 100 % of control | [5] 101 % of control

COC(=O)C(CC=C(C)C)(CC=C(C)C)C(C)=O
inactive: dose: 100.0 mg/kg/injection, schedule: Q04DX002 (ip), vehicle: saline 104 % of control | dose: 200.0 mg/kg/injection, schedule: Q04DX002 (ip), vehicle: saline 100 % of control | dose: 400.0 mg/kg/injection, schedule: Q04DX002 (ip), vehicle: saline 113 % of control

O=C(O)c1cccc(C(=O)O)c1I
inactive: dose: 100.0 mg/kg/injection, schedule: Q01DX001 (ip), vehicle: other 103 % of control | dose: 200.0 mg/kg/injection, schedule: Q01DX001 (ip), vehicle: other 96 % of control | dose: 400.0 mg/kg/injection, schedule: Q01DX001 (ip), vehicle: other 89 % of control

COC1=CC(=O)OC1n1ccc(OC)nc1=O (centres undefined)
inactive: [1] 100 % of control | [2] 95 % of control | dose: 200.0 mg/kg/injection, schedule: Q01DX005 (ip), vehicle: Klucel (hydroxypropylcellulose) (HPC) 95 % of control

C[C@H]1CC(c2ccc(Cl)cc2)[C@@H](c2ccccc2)C(=O)O1 (some centres undefined)
inactive: dose: 100.0 mg/kg/injection, schedule: Q04DX003 (ip), vehicle: Klucel (hydroxypropylcellulose) (HPC) 92 % of control | dose: 200.0 mg/kg/injection, schedule: Q04DX003 (ip), vehicle: Klucel (hydroxypropylcellulose) (HPC) 93 % of control | dose: 400.0 mg/kg/injection, schedule: Q04DX003 (ip), vehicle: Klucel (hydroxypropylcellulose) (HPC) 92 % of control

CC(C)C1=CC23CCC4C(C)(C(=O)O)CCCC4(C)C2CC1C1C(=O)N(CCCN(C)C)C(=O)C13 (centres undefined)
inactive: dose: 60.0 mg/kg/injection, schedule: Q01DX005 (ip), vehicle: saline with Tween-80 104 % of control | dose: 120.0 mg/kg/injection, schedule: Q01DX005 (ip), vehicle: saline with Tween-80 99 % of control

CN(C)C(=O)c1cccc(COc2ccc(N)cc2Cl)c1
inactive: [3] 95 % of control | dose: 200.0 mg/kg/injection, schedule: Q01DX009 (ip), vehicle: saline with Tween-80 90 % of control | dose: 400.0 mg/kg/injection, schedule: Q01DX009 (ip), vehicle: saline with Tween-80 95 % of control

CCOC(=O)c1sc(=S)n(C(C)C)c1C
inactive: dose: 12.5 mg/kg/injection, schedule: Q01DX005 (ip), vehicle: saline with Tween-80 101 % of control | dose: 25.0 mg/kg/injection, schedule: Q01DX005 (ip), vehicle: saline with Tween-80 101 % of control | dose: 50.0 mg/kg/injection, schedule: Q01DX005 (ip), vehicle: saline with Tween-80 101 % of control and 102 % of control | dose: 100.0 mg/kg/injection, schedule: Q01DX005 (ip), vehicle: saline with Tween-80 100 % of control | dose: 200.0 mg/kg/injection, schedule: Q01DX005 (ip), vehicle: saline with Tween-80 98 % of control
